Key:
[1] = system: SCC-61 and rSCC-61 tumors; assay: microPET/CT imaging in SCC-61 and rSCC-61 tumor-bearing mice; assay type: in vivo
Text: After evaluating the complete in vitro ROS uptake and stability profile of [^18F]KS1, we performed in vivo microPET/CT scans in tumor-bearing mice. To test our hypothesis of selective binding of [^18F]KS1 to image ROS in tumor tissue, we reported the baseline and blocking PET imaging data in a murine model of PCa (Solingapuram Sai et al., Initial biological evaluations of 18F-KS1, a novel ascorbate derivative to image oxidative stress in cancer. EJNMMI Research 2019, 9 (1), 43). Further, to test the differential ROS uptake of [^18F]KS1, microPET/CT imaging experiments were performed in both SCC-61 and rSCC-61 tumor-bearing mice (n=5, 25±2.5 g).

Ex vivo serum stability = assay type: in vitro ADME; settings: human serum, 37° C., after 120 min of tracer synthesis
Description: The ex vivo serum stability of [^18F]KS1 and [^18F]KS2 were analyzed in human serum samples, following previously published methods (Sai et al., Peptide-based PET imaging of the tumor restricted IL13RA2 biomarker. Oncotarget 2017, 5; Sattiraju et al., IL13RA2 targeted alpha particle therapy against glioblastoma. Journal of Nuclear Medicine 2016, 57 (supplement 2), 634; Wang et al., Evaluation of F-18-labeled amino acid derivatives and [18F]FDG as PET probes in a brain tumor-bearing animal model. Nuclear Medicine and Biology 2005, 32 (4), 367-375). Briefly, radiotracer was added to the human serum sample, and incubated at 37° C. Radioactive serum mixture was injected into the QC-HPLC system at 5 min, 30 min, 1 h, 1.5 h, 2 h, 2.5 h, and 3 h post radiotracer synthesis. Radiolysis through defluorination and/or oxidation of the radiotracers (if any) can be seen as new radiochemical peaks at different retention times (Rt) than the original product peak (Jin et al., A promising F-18 labeled PET radiotracer (-)-[18F]VAT for assessing the VAChT in vivo. Journal of Nuclear Medicine 2015, 56 (supplement 3); Koglin et al., [F-18]BAY 85-8050: A novel tumor specific probe for PET imaging-Preclinical results. Journal of Nuclear Medicine 2010, 51 (supplement 2), 1535; […] et al., Imaging COX-2 expression in cancer using PET/SPECT radioligands: current status and future directions. […]

[2] = system: SCC-61 and PC3 cell lines; assay: DCFDA intracellular ROS detection assay; assay type: cell-based, human
Text: For this, we used dichlorofluorescin diacetate (DCFDA) intracellular ROS detection assay kit and followed manufacture recommended protocol (ZHELEV et al., Docosahexaenoic Acid Sensitizes Leukemia Lymphocytes to Barasertib and Everolimus by ROS-dependent Mechanism Without Affecting the Level of ROS and Viability of Normal Lymphocytes. Anticancer Research 2016, 36 (4), 1673-1682). We studied two patient-derived tumor cell lines: SCC-61, […], and PC3, prostate cancer cell line. The maximum allowed mass for a typical clinical PET radiotracer is <100 μM (Schwarz et al., Radiochemistry and radiopharmacology. LIC-Nuclear Medicine and PET/CT: Technology and Techniques 2016, 11, 77), so we chose 10-100 μM as our concentration range for tracer-level assays. The lowest reported pharmacologic dose for ascorbate is 2.0 mM (Levine et al., Vitamin C: a concentration-function approach yields pharmacology and therapeutic discoveries. Adv Nutr 2011, 2 (2), 78-88), so we chose this dose for our pharmacological assays. We chose the ligand incubation times based on the maximum tracer uptake time (˜2 h) for a typical [^18F]-based PET radiotracer injection (Schlyer, PET tracers and radiochemistry. ANNALS-ACADEMY OF MEDICINE SINGAPORE 2004, 33 (2), 146-154).
Pharmacologic doses of ascorbate generates ROS, including H2O2 and trace amounts of labile iron extracellularly and/or intracellularly (Nauman et al., Systematic Review of Intravenous Ascorbate in Cancer Clinical Trials. Antioxidants (Basel) 2018, 7 (7), 89). We performed the same DCFDA assay with KS1 and ascorbate at pharmacological doses of 2 mM for 7 h in both SCC-61 and PC3 cell lines. ROS production was analyzed and reported (FIG. 11) using the similar measurements as above. Ligand specificity is commonly determined by pretreating the cells with high concentrations of blockers. We used superoxide dismutase (SOD), an enzyme that selectively suppresses accumulation of superoxide peroxide anions (Bielski et al., Chemistry of ascorbic acid radicals. in Ascorbic Acid: Chemistry, Metabolism, and Uses. Chapter 1982, 4, 81-100).

residual uptake in other organs, including bladder and kidney ([1]; post 1-h radiotracer injection)	intact in serum (Ex vivo serum stability) [%]	SMILES	tumor uptake in SCC-61 tumors versus rSCC-61 tumors ([1]; ROI analysis on PET scans) [fold]	ROS generation (DCFDA fluorescence) ([2]; 10 μM and 100 μM, SCC-61 and PC3)	fluorescence intensity (ROS generation) at pharmacological dose ([2]; 2 mM, 7 h, compared to 100 μM)	increased intensity subdued with SOD addition ([2]; 2 mM, SOD blocker) [fold]
no residual uptake	~90	O=C1O/C(=C/CCl)C(O)=C1OCc1ccc(OCC[18F])cc1 [[^18F]KS1]	~1.2	–	–	–
–	–	O=C1O/C(=C/CCl)C(O)=C1OCc1ccc(OCCF)cc1 [KS1, (E)-5-(2-chloroethylidene)-3-(4-(2-fluoroethoxy)benzyloxy)-4-hydroxyfuran-2(5H)-one]	–	did not generate ROS	increased significantly	~3
